{
  "source": "patent US11548901B2",
  "about": "“Substituted 1,4-methanopyrido[1′,2′:4,5]pyrazino[1,2-a]pyrimidines for treating viral infections” (Gilead Sciences, Inc., priority 2012, dated 2023)",
  "system": "HIV-IIIb",
  "experiment": "Antiviral assay in MT4 cells",
  "format": "cell-based",
  "conditions": "Human immunodeficiency virus 1, IIIB, MT4, 120 h, read-out: EC50 nM in MT-4",
  "description": "For the antiviral assay utilizing MT4 cells, 0.4 μL of […] test concentration of 3-fold serially diluted compound in DMSO was added to 40 μL of cell growth medium (RPMI 1640, 10% FBS, 1% penicilline/Streptomycine, 1% L-Glutamine, 1% HEPES) in each well of 384-well assay plates (10 concentrations) in quidruplicate.\n1 mL aliquots of 2×10^6 MT4 cells are pre-infected for 1 and 3 hours respectively at 37° C. with 25 μL (MT4) or of either cell growth medium (mock-infected) or a fresh 1:250 dilution of an HIV-IIIb concentrated ABI stock (0.004 m.o.i. for MT4 cells). Infected and uninfected cells are diluted in cell growth medium and 35 μL of 2000 (for MT4) cells is added to each well of the assay plates.\nAssay plates were then incubated in a 37° C. incubator. […] Cell lysis was carried out by incubating at room temperature for 2-3 minutes, and then chemiluminescence was read using the Envision reader (PerkinElmer).",
  "data": [
    {"smiles": "CC1CC2CC1OC1Cn3cc(C(=O)NCc4ccc(F)cc4F)c(=O)c(O)c3C(=O)N21", "note": "(single isomer, unassigned) [Compound 40]", "values": [
      {"measurement": "EC50", "value": 2.4, "unit": "nM"}
    ]}
  ]
}
